{"source": "patent US7618663B2", "about": "“Anti-arthritic herbal composition and method thereof” (priority 2004, dated 2009)", "key": {"[1]": {"test_system": "stomach", "settings": "known side effect of the drug; cited from earlier work"}, "[2]": {"test_system": "formaldehyde-induced arthritis", "assay": "formaldehyde-induced acute arthritis, paw edema", "assay_type": "in vivo, rat", "settings": "dose 30 mg/kg; given 24 hours before formalin and continued for 13 days; mean ± S.E.M., six rats", "experimental": "Formaldehyde-induced arthritis was produced in rats by injecting 0.1 ml of 2% formaldehyde in the hind paw under the planter aponeurosis. Paw volume was measured daily for 13 days. The test composition was given 24 hours before formalin injection and continued for 13 days."}, "[3]": {"test_system": "formalin arthritis and granuloma pouch", "settings": "cited from earlier work"}}, "note": "Marks after values point to notes of the source that are not given here."}
{"compound": "CC(C)Cc1ccc(C(C)C(=O)O)cc1", "note": "(stereo not shown) [Ibuprofen]", "values": [{"measurement": "ulcer in the stomach", "setting": "[1]", "value": "causes ulcer in the stomach"}, {"measurement": "% Edema (Swelling)", "setting": "[2]", "value": "27.80 ± 4.2^b %"}]}
{"compound": "C[C@H]1C[C@H]2[C@@H]3CCC4=CC(=O)C=C[C@]4(C)[C@@]3(F)[C@@H](O)C[C@]2(C)[C@@]1(O)C(=O)CO", "note": "[betamethasone]", "values": [{"measurement": "mortality rate", "setting": "[3]; albino rats", "value": "12 out of 29"}, {"measurement": "gastric side effects-ulcer and bleeding", "setting": "[3]; rats", "value": "10 out of 12"}]}
